The text below walks through data of ChEMBL document CHEMBL1909564, “A modular approach to trim cellular targets in anticancer drug discovery” (Bioorg Med Chem Lett, 2011).

Experiment [1] relates to A2780. The experiment in a line: Growth inhibition of human A2780 cells. The experiment is classed as functional.
Experiment [2] deals with HBL-100. The experiment in a line: Growth inhibition of human HBL100 cells. The experiment is classed as functional.
Experiment [3] relates to HeLa. The experiment in a line: Growth inhibition of human HeLa cells. The experiment is classed as functional.
The test system of experiment [4] is Ishikawa. Briefly: Growth inhibition of human Ishikawa cells. The experiment is classed as functional.
Experiment [5] deals with SW1573. Briefly: Growth inhibition of human SW1573 cells. The experiment is classed as functional.
The test system of experiment [6] is T47D. The experiment in a line: Growth inhibition of human T47D cells. The experiment is classed as functional.
For experiment [7], the system named is WiDr. The experiment in a line: Growth inhibition of human WiDr cells. The experiment is classed as functional.
Experiment [8] concerns HBL-100. Briefly: Cell cycle arrest in human HBL100 cells assessed as accumulation at G2/M phase after 24 hrs by flow cytometry. It counts as functional, cell-based. On the technique in general: In flow cytometry, cells or beads pass a laser one at a time.
Experiment [9] concerns SW1573. The experiment in a line: Cell cycle arrest in human SW1573 cells assessed as accumulation at G2/M phase after 24 hrs by flow cytometry. The experiment is classed as functional, cell-based.
The subject of experiment [10] is T47D. Briefly: Cell cycle arrest in human T47D cells assessed as accumulation at G2/M phase after 24 hrs by flow cytometry. The experiment is classed as functional, cell-based.
The subject of experiment [11] is HeLa. Briefly: Cell cycle arrest in human HeLa cells assessed as accumulation at G2/M phase after 24 hrs by flow cytometry. It counts as functional, cell-based.
Experiment [12] relates to WiDr. Briefly: Cell cycle arrest in human WiDr cells assessed as accumulation at G2/M phase after 24 hrs by flow cytometry. The experiment is classed as functional, cell-based.
For experiment [13], the system named is HBL-100. Briefly: Cell cycle arrest in human HBL100 cells assessed as decrease in cells at G1 phase at 7 to 21 uM after 24 hrs by flow cytometry. The experiment is classed as functional, cell-based.
In experiment [14] the test system is SW1573. The experiment in a line: Cell cycle arrest in human SW1573 cells assessed as decrease in cells at G1 phase at 7 to 21 uM after 24 hrs by flow cytometry. It counts as functional, cell-based.
For experiment [15], the system named is T47D. The experiment in a line: Cell cycle arrest in human T47D cells assessed as decrease in cells at G1 phase at 7 to 21 uM after 24 hrs by flow cytometry. It counts as functional, cell-based.
Experiment [16] deals with HeLa. The experiment in a line: Cell cycle arrest in human HeLa cells assessed as decrease in cells at G1 phase at 7 to 21 uM after 24 hrs by flow cytometry. The experiment is classed as functional, cell-based.
Experiment [17] relates to WiDr. The experiment in a line: Cell cycle arrest in human WiDr cells assessed as decrease in cells at G1 phase at 7 to 21 uM after 24 hrs by flow cytometry. It counts as functional, cell-based.
The test system of experiment [18] is HBL-100. Briefly: Cell cycle arrest in human HBL100 cells assessed as decrease in cells at S phase at 7 to 21 uM after 24 hrs by flow cytometry. It counts as functional, cell-based.
The subject of experiment [19] is SW1573. The experiment in a line: Cell cycle arrest in human SW1573 cells assessed as decrease in cells at S phase at 7 to 21 uM after 24 hrs by flow cytometry. The experiment is classed as functional, cell-based.
For experiment [20], the system named is HeLa. Briefly: Cell cycle arrest in human HeLa cells assessed as decrease in cells at S phase at 7 to 21 uM after 24 hrs by flow cytometry. It counts as functional, cell-based.
The subject of experiment [21] is T47D. Briefly: Cell cycle arrest in human T47D cells assessed as decrease in cells at S phase at 7 to 21 uM after 24 hrs by flow cytometry. The experiment is classed as functional, cell-based.
In experiment [22] the test system is WiDr. The experiment in a line: Cell cycle arrest in human WiDr cells assessed as decrease in cells at S phase at 7 to 21 uM after 24 hrs by flow cytometry. The experiment is classed as functional, cell-based.
Experiment [23] relates to HBL-100. Briefly: Induction of apoptosis in human HBL100 cells assessed as increase in sub-G1 DNA content at 7 to 21 uM after 24 hrs by flow cytometry. It counts as functional.
The test system of experiment [24] is SW1573. Briefly: Induction of apoptosis in human SW1573 cells assessed as increase in sub-G1 DNA content at 7 to 21 uM after 24 hrs by flow cytometry. The experiment is classed as functional.
The test system of experiment [25] is HeLa. The experiment in a line: Induction of apoptosis in human HeLa cells assessed as increase in sub-G1 DNA content at 7 to 21 uM after 24 hrs by flow cytometry. The experiment is classed as functional.
For experiment [26], the system named is T47D. The experiment in a line: Induction of apoptosis in human T47D cells assessed as increase in sub-G1 DNA content at 7 to 21 uM after 24 hrs by flow cytometry. The experiment is classed as functional.
The subject of experiment [27] is WiDr. The experiment in a line: Induction of apoptosis in human WiDr cells assessed as increase in sub-G1 DNA content at 7 to 21 uM after 24 hrs by flow cytometry. The experiment is classed as functional.
Experiment [28] has as its system HeLa. The experiment in a line: Induction of apoptosis in human HeLa cells assessed as PARP cleavage at 7 to 21 uM after 24 hrs by immunoblotting. It counts as functional, cell-based. Background: A western blot detects proteins with antibodies after separation by electrophoresis.
Experiment [29] relates to HeLa. The experiment in a line: Cell cycle arrest in human HeLa cells assessed as decrease in phosphorylated RB protein at 7 to 21 uM after 24 hrs by Western blot analysis. It counts as functional, cell-based.
For experiment [30], the system named is HeLa. The experiment in a line: Cell cycle arrest in human HeLa cells assessed as effect on cyclin B1 protein at 7 to 21 uM after 24 hrs by Western blot analysis. The experiment is classed as functional, cell-based.
In experiment [31] the test system is HeLa. Briefly: Cell cycle arrest in human HeLa cells assessed as increase in level of phosphorylated histone H3 at ser10 at 7 to 21 uM after 24 hrs by Western blot analysis. The experiment is classed as functional, cell-based.
For experiment [32], the system named is HeLa. The experiment in a line: Cell cycle arrest in human HeLa cells assessed as phosphorylated histone H3 at ser10 at 21 uM after 24 hrs by flow cytometry (reference value: […]). The experiment is classed as functional.
Experiment [33] has as its system HeLa. The experiment in a line: Cell cycle arrest in human HeLa cells assessed as increase in phosphorylated BubR1 level at 7 to 21 uM after 24 hrs by Western blot analysis. It counts as functional, cell-based.

The source made the active and inactive calls. The calls are words filed in the database; no cut-off is given here. Where only a bound is given, the exact number is not on record here.

`CNc1ncnc(NCCc2ccccc2)c1N=O`: the GI50 is 3.4 µM in experiment [1]; 3.6 µM in [2]; 4.5 µM in [3]; 3.8 µM in [4]; 3.2 µM in experiment [5]; 7 µM in experiment [6]. In addition, the GI50 in experiment [7] came to 7.2 µM. Besides, the Activity result in experiment [8] was “Dose-dependent effect”; in experiment [9], “Dose-dependent effect”; in experiment [10], “Dose-dependent effect”; in [11] it was “Dose-dependent effect”; in experiment [12], “Dose-dependent effect”; in experiment [23] it was below 8.5%. The Activity in experiment [24] was below 8.5%; in experiment [25], below 8.5%; in [26], below 8.5%; in experiment [27], below 8.5%; in experiment [32], 15.1%. Also, the outcome in [13], in experiment [14], in experiment [15], in experiment [16], in [17] and in [18] was Active. The outcome in experiment [19], in experiment [20], in experiment [21], in experiment [22], in experiment [29] and in [31] was Active. Also, the outcome in experiment [33] was Active. Also, the outcome in experiment [28] and in experiment [30] was inactive.
With `Cn1c(=O)c(=O)n(O)c2c(NCCN3CCOCC3)ncnc21`, the GI50 in experiment [1], in experiment [2], in experiment [3], in [4], in experiment [5] and in experiment [6] was above 100 µM throughout. In addition, in experiment [7], the concentration for 50% growth inhibition (GI50) was above 100 µM.
As for `Cn1c(=O)c(=O)n(O)c2c(NCCc3ccccc3)ncnc21`, the 50% growth inhibitory concentration (GI50) is above 100 µM in experiment [1]; 54 µM in experiment [2]; above 100 µM in experiment [3]; above 100 µM in [4]; 59 µM in [5]; above 100 µM in experiment [6]. For the same molecule, the concentration for 50% growth inhibition (GI50) in [7] is above 100 µM.
Consider `CC(=O)O[C@H]1C(=O)[C@@]2(C)[C@H]([C@H](OC(=O)c3ccccc3)[C@]3(O)C[C@H](OC(=O)[C@H](O)[C@@H](NC(=O)c4ccccc4)c4ccccc4)C(C)=C1C3(C)C)[C@]1(OC(C)=O)CO[C@@H]1C[C@@H]2O` [PACLITAXEL], for which the GI50 in experiment [1] turned out to be 0.00027 µM; in experiment [2] it was 1.7e-05 µM; in experiment [5], 0.005 µM; in experiment [6], 0.00015 µM; in experiment [7] it was 0.00022 µM.
In the case of `COc1cc([C@@H]2c3cc4c(cc3[C@@H](O[C@@H]3O[C@@H]5CO[C@@H](C)O[C@H]5[C@H](O)[C@H]3O)[C@H]3COC(=O)[C@H]23)OCO4)cc(OC)c1O` [ETOPOSIDE], the GI50 in experiment [2] is 2.3 µM; in experiment [3] it was 3 µM; in experiment [4] it was 11 µM; in experiment [5], 15 µM; in experiment [6], 22 µM; in experiment [7], 23 µM.
Turning to `CSc1nc(N)c(N=O)c(NCCc2ccccc2)n1`, the GI50 in experiment [1] is above 100 µM; in [2], 12 µM; in experiment [3], 27 µM; in [4], above 100 µM; in experiment [5] it was 37 µM; in experiment [6], above 100 µM. The GI50 in experiment [7] was above 100 µM.

One may read the GI50 as the concentration that inhibits growth by half. A low value points to more potent growth inhibition.
